Assay results as given in ChEMBL document CHEMBL5113453, “Design, synthesis, and biological evaluation of a new series of pyrazole derivatives: Discovery of potent and selective JNK3 kinase inhibitors” (Bioorg Med Chem, 2022).

Assays:
HCT-116 = experiment: Antiproliferative activity against human HCT-116 cells measured after 48 hrs by SRB assay; format: functional, cell-based
OVCAR-8 = experiment: Antiproliferative activity against human OVCAR-8 cells measured after 48 hrs by SRB assay; format: functional, cell-based
SK-MEL-5 = experiment: Antiproliferative activity against human SK-MEL-5 cells measured after 48 hrs by SRB assay; format: functional, cell-based
A498 = experiment: Antiproliferative activity against human A498 cells measured after 48 hrs by SRB assay; format: functional, cell-based
BT-549 = experiment: Antiproliferative activity against human BT-549 cells measured after 48 hrs by SRB assay; format: functional, cell-based
NCI-H226 = experiment: Antiproliferative activity against human NCI-H226 cells measured after 48 hrs by SRB assay; format: functional, cell-based
K562 = experiment: Antiproliferative activity against human K562 cells measured after 48 hrs by SRB assay; format: functional, cell-based
U-251 = experiment: Antiproliferative activity against human U-251 cells measured after 48 hrs by SRB assay; format: functional, cell-based
RPMI-8226 = experiment: Antiproliferative activity against human RPMI-8226 cells measured after 48 hrs by SRB assay; format: functional, cell-based
HOP-92 = experiment: Antiproliferative activity against human HOP-92 cells measured after 48 hrs by SRB assay; format: functional, cell-based
SK-OV-3 = experiment: Antiproliferative activity against human SK-OV-3 cells measured after 48 hrs by SRB assay; format: functional, cell-based
SF-295 = experiment: Antiproliferative activity against human SF-295 cells measured after 48 hrs by SRB assay; format: functional, cell-based
SN12C = experiment: Antiproliferative activity against human SN12C cells measured after 48 hrs by SRB assay; format: functional, cell-based
T47D = experiment: Antiproliferative activity against human T47D cells measured after 48 hrs by SRB assay; format: functional, cell-based
UACC-62 = experiment: Antiproliferative activity against human UACC-62 cells measured after 48 hrs by SRB assay; format: functional, cell-based
SW-620 = experiment: Antiproliferative activity against human SW-620 cells measured after 48 hrs by SRB assay; format: functional, cell-based
COLO 205 = experiment: Antiproliferative activity against human COLO 205 cells measured after 48 hrs by SRB assay; format: functional, cell-based
WI-38 = experiment: Antiproliferative activity against human WI-38 cells measured by MTT assay; format: functional, cell-based
[1] = target: T1, Mitogen-activated protein kinase 10 (Homo sapiens, UniProt P53779); experiment: Inhibition of JNK3 (unknown origin)
T1 sequence (P53779 whole entry): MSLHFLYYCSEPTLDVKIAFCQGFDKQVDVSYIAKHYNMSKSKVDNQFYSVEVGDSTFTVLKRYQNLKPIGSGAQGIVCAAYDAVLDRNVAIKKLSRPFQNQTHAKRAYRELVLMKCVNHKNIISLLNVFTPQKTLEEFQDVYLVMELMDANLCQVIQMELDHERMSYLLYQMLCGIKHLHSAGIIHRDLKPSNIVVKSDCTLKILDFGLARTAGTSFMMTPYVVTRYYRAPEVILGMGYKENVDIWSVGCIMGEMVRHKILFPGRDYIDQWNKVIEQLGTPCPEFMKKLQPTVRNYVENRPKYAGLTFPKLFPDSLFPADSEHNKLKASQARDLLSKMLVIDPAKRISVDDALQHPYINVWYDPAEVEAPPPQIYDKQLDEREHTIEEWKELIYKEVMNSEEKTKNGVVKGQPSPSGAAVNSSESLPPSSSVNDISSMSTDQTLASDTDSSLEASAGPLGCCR

SK-MEL-2 = experiment: Antiproliferative activity against human SK-MEL-2 cells measured after 48 hrs by SRB assay; format: functional, cell-based
DU-145 = experiment: Antiproliferative activity against human DU-145 cells measured after 48 hrs by SRB assay; format: functional, cell-based
HT-29 = experiment: Antiproliferative activity against human HT-29 cells measured after 48 hrs by SRB assay; format: functional, cell-based
HCT-15 = experiment: Antiproliferative activity against human HCT-15 cells measured after 48 hrs by SRB assay; format: functional, cell-based
MOLT-4 = experiment: Antiproliferative activity against human MOLT-4 cells measured after 48 hrs by SRB assay; format: functional, cell-based
HL-60(TB) = experiment: Antiproliferative activity against human HL-60(TB) cells measured after 48 hrs by SRB assay; format: functional, cell-based
SK-MEL-28 = experiment: Antiproliferative activity against human SK-MEL-28 cells measured after 48 hrs by SRB assay; format: functional, cell-based
SF-268 = experiment: Antiproliferative activity against human SF-268 cells measured after 48 hrs by SRB assay; format: functional, cell-based
NCI-H23 = experiment: Antiproliferative activity against human NCI-H23 cells measured after 48 hrs by SRB assay; format: functional, cell-based
NCI-H460 = experiment: Antiproliferative activity against human NCI-H460 cells measured after 48 hrs by SRB assay; format: functional, cell-based
OVCAR-5 = experiment: Antiproliferative activity against human OVCAR-5 cells measured after 48 hrs by SRB assay; format: functional, cell-based
HOP-62 = experiment: Antiproliferative activity against human HOP-62 cells measured after 48 hrs by SRB assay; format: functional, cell-based
SNB-19 = experiment: Antiproliferative activity against human SNB-19 cells measured after 48 hrs by SRB assay; format: functional, cell-based
OVCAR-4 = experiment: Antiproliferative activity against human OVCAR-4 cells measured after 48 hrs by SRB assay; format: functional, cell-based
ACHN = experiment: Antiproliferative activity against human ACHN cells measured after 48 hrs by SRB assay; format: functional, cell-based
MDA-MB-468 = experiment: Antiproliferative activity against human MDA-MB-468 cells measured after 48 hrs by SRB assay; format: functional, cell-based
UO-31 = experiment: Antiproliferative activity against human UO-31 cells measured after 48 hrs by SRB assay; format: functional, cell-based
NCI-H522 = experiment: Antiproliferative activity against human NCI-H522 cells measured after 48 hrs by SRB assay; format: functional, cell-based
A549 = experiment: Antiproliferative activity against human A549 cells measured after 48 hrs by SRB assay; format: functional, cell-based
[2] = target: T1, Mitogen-activated protein kinase 10; experiment: Inhibition of JNK3 (unknown origin) at 1 uM relative to control

Compound COc1cccc(-c2nn(-c3ccccc3)cc2-c2ccnc(NCCCNC(=O)Nc3ccc(F)cc3)c2)c1 has an IC50 (HCT-116; HCT-116, 48 h) of 5.7 µM, a TGI (HCT-116; HCT-116, time 48 hrs) of 17 µM and an IC50 (OVCAR-8; OVCAR-8, 48 h) of 10.6 µM. It also gave a TGI (OVCAR-8; OVCAR-8, time 48 hrs) of over 37 µM, an IC50 (SK-MEL-5; SK-MEL-5, 48 h) of 5.64 µM and a TGI (SK-MEL-5; SK-MEL-5, time 48 hrs) of 10.8 µM. For the same compound, the IC50 (A498; A498, 48 h) was 7.37 µM, the TGI (A498; A498, time 48 hrs) was 31.4 µM and the IC50 (BT-549; BT-549, 48 h) was 6.24 µM. The TGI (BT-549; BT-549, time 48 hrs) was 20.3 µM, the IC50 (NCI-H226; NCI-H226, 48 h) was 10.8 µM and the TGI (NCI-H226; NCI-H226, time 48 hrs) was over 37 µM. The IC50 (K562; K562, 48 h) was 2.96 µM, the TGI (K562; K562, time 48 hrs) was over 37 µM and the IC50 (U-251; U-251, 48 h) was 9.84 µM. For the same compound, the TGI (U-251; U-251, time 48 hrs) was over 37 µM, the IC50 (RPMI-8226; RPMI-8226, 48 h) was 5.96 µM and the TGI (RPMI-8226; RPMI-8226, time 48 hrs) was 24.6 µM. It also gave an IC50 (HOP-92; HOP-92, 48 h) of 6.25 µM, a TGI (HOP-92; HOP-92, time 48 hrs) of 31.1 µM and an IC50 (SK-OV-3; SK-OV-3, 48 h) of 10.8 µM. It also gave a TGI (SK-OV-3; SK-OV-3, time 48 hrs) of over 37 µM, an IC50 (SF-295; SF-295, 48 h) of 7.16 µM and a TGI (SF-295; SF-295, time 48 hrs) of 21.7 µM. The IC50 (SN12C; 48 h) was 9.83 µM, the TGI (SN12C; time 48 hrs) was over 37 µM and the IC50 (T47D; 48 h) was 7.95 µM. For the same compound, the TGI (T47D; time 48 hrs) was over 37 µM, the IC50 (UACC-62; UACC-62, 48 h) was 7.57 µM and the TGI (UACC-62; UACC-62, time 48 hrs) was 24.2 µM. It also gave an IC50 (SW-620; SW-620, 48 h) of 8.02 µM, a TGI (SW-620; SW-620, time 48 hrs) of over 37 µM and an IC50 (COLO 205; COLO 205, 48 h) of 8.17 µM. The TGI (COLO 205; COLO 205, time 48 hrs) was 29.3 µM, the IC50 (WI-38) was over 20 µM and the IC50 [1] was over 1 µM. The IC50 (SK-MEL-2; SK-MEL-2, 48 h) was 6.3 µM, the TGI (SK-MEL-2; SK-MEL-2, time 48 hrs) was 12.6 µM and the IC50 (DU-145; DU-145, 48 h) was 14 µM. It also gave a TGI (DU-145; DU-145, time 48 hrs) of over 37 µM, an IC50 (HT-29; HT-29, 48 h) of 7.17 µM and a TGI (HT-29; HT-29, time 48 hrs) of 18.2 µM. For the same compound, the IC50 (HCT-15; HCT-15, 48 h) was 7.64 µM, the TGI (HCT-15; HCT-15, time 48 hrs) was over 37 µM and the IC50 (MOLT-4; MOLT-4, 48 h) was 3.94 µM. For the same compound, the TGI (MOLT-4; MOLT-4, time 48 hrs) was 19 µM, the IC50 (HL-60(TB); HL-60, 48 h) was 3.77 µM and the TGI (HL-60(TB); HL-60, time 48 hrs) was 13.7 µM. It also gave an IC50 (SK-MEL-28; SK-MEL-28, 48 h) of 6.57 µM, a TGI (SK-MEL-28; SK-MEL-28, time 48 hrs) of 15.5 µM and an IC50 (SF-268; SF-268, 48 h) of 7.08 µM. The TGI (SF-268; SF-268, time 48 hrs) was 30 µM, the IC50 (NCI-H23; NCI-H23, 48 h) was 10.1 µM and the TGI (NCI-H23; NCI-H23, time 48 hrs) was over 37 µM. The IC50 (NCI-H460; NCI-H460, 48 h) was 6.54 µM, the TGI (NCI-H460; NCI-H460, time 48 hrs) was 17.1 µM and the IC50 (OVCAR-5; OVCAR-5, 48 h) was 11.2 µM. It also gave a TGI (OVCAR-5; OVCAR-5, time 48 hrs) of over 37 µM, an IC50 (HOP-62; HOP-62, 48 h) of 14.7 µM and a TGI (HOP-62; HOP-62, time 48 hrs) of over 37 µM. The IC50 (SNB-19; SNB-19, 48 h) was 12.1 µM, the TGI (SNB-19; SNB-19, time 48 hrs) was over 37 µM and the IC50 (OVCAR-4; OVCAR-4, 48 h) was 10.5 µM. The TGI (OVCAR-4; OVCAR-4, time 48 hrs) was over 37 µM, the IC50 (ACHN; 48 h) was 10.6 µM and the TGI (ACHN; time 48 hrs) was over 37 µM. It also gave an IC50 (MDA-MB-468; MDA-MB-468, 48 h) of 4.83 µM, a TGI (MDA-MB-468; MDA-MB-468, time 48 hrs) of 13 µM and an IC50 (UO-31; UO-31, 48 h) of 5.1 µM. It also gave a TGI (UO-31; UO-31, time 48 hrs) of over 37 µM, an IC50 (NCI-H522; NCI-H522, 48 h) of 5.07 µM and a TGI (NCI-H522; NCI-H522, time 48 hrs) of 12 µM. It also gave an IC50 (A549; A549, 48 h) of 9.95 µM, a TGI (A549; A549, time 48 hrs) of over 37 µM and an inhibition [2] of 3%.
